Publication PMC9299640, “Incorporation of β‐Alanine in Cu(II) ATCUN Peptide Complexes Increases ROS Levels, DNA Cleavage and Antiproliferative Activity” (Chemistry (Weinheim an Der Bergstrasse, Germany), 2021)
Where a SMILES comes first, the peptide text is derived from it. Where no end group is shown, it is not given here. [ ]: non-standard residue; d: D form. βAla = NCCC(=O)O

Tests used:
[1] = Potentiometric titration of peptides with CuCl2: Cu(II) binding constants and competitivity index at pH 7.4; type: physicochemical; conditions: 25 °C, I=0.1 (KNO3); for CI7.4 (competitivity index, log K CuZ): calculated at pH 7.4 for 1 mM Cu(II), peptide L and virtual competitive ligand Z from potentiometric stability constants; for log *K4N (protonation-corrected stability constant of Cu(II) 4N complex): log β{CuHn-4L} – log β{HnL}; for log β CuH-2L / log β CuH-3L / log β CuL / log β CuH-1L / log β CuHL: 1 mM peptide, Cu:peptide 1:1, 1:2, 1:3
Description: (§1) Key factors for the investigation of the biological activity of metal complexes are the complex stability and the detection of the active species at a physiological pH value of 7.4.[27] Thus, potentiometric titration experiments of peptides a–g (b) alone and in the presence of CuCl2 (logarithmic protonation (log β) and protonation‐corrected Cu(II) binding constants (log *K)) and pH‐metric UV/VIS and CD spectroscopic measurements of 1–7 (2 [26]) were carried out (S‐5).
(§2) S-5 Protonation and complex stability constants
(§3) All bioanalytical experiments (DNA cleavage, DNA binding and ROS detection studies) and cell studies (cytotoxicity and cellular uptake) were carried out at pH 7.4. To characterize the speciation of the ATCUN metallopeptides at this pH, potentiometric titrations in combination with UV/VIS and CD spectroscopy were carried out for 1 and 3-7.
(§4) S-5.1 Potentiometry, UV/VIS and circular dichroism (CD) spectroscopy […]
(§5) Potentiometric titrations were performed on a 907 Titrando Automatic Titrator (Metrohm) using a Biotrode combined glass electrode (Metrohm), calibrated daily by nitric acid titrations with the use of standardized 100 mM NaOH (carbon dioxide-free) as a […]
Stock solution preparation:
Stock solutions of peptides a and c–g for UV/VIS and CD experiments were prepared by dissolving given amounts of peptides in carbon dioxide-free Milli-Q® water.
Samples (1.5 mL volume, 1 mM peptide) were prepared in 4 mM HNO3/96 mM KNO3 solution. To calculate ligand (peptide) concentrations and their protonation constants, at least three consecutive potentiometric titrations were performed.
Three samples (1.5 mL) of 1 mM peptide and CuCl2 with Cu : peptide ratios of 1:1, 1:2 and 1:3 were prepared in 4 mM HNO3/96 mM KNO3. Each sample was titrated separately using a standardized 100 mM NaOH solution. The pH range for all potentiometric […]
All ligand and complex titrations were performed under argon at 25 °C. The data was analyzed using the SUPERQUAD and HYPERQUAD programs.
For the determination of Cu(II) stability constants, peptides a and c–g UV/VIS spectra were recorded in a range of 250–900 nm with a scan resolution of 1 nm, and a scan speed of 0.5 s/nm on a Lambda 950 UV/VIS/NIR spectrophotometer (PerkinElmer). The samples of 1 mM peptide/0.8 mM CuCl2 were prepared in 1 cm path length quartz cuvettes (Hellma) and titrated with small amounts of concentrated NaOH solution. Usually the pH-metric titration spanned from pH 2.9 to pH 12.5. […]
(§6) Table S5. Logarithmic protonation and Cu(II) binding constants (log β and pK) of peptides a-g (b not measured), determined by potentiometry at 25 °C and I=0.1 (KNO3), and competitivity index (CI) values calculated at pH 7.4 for 1 mM Cu(II) and peptides based on respective stability constants.
(§7) Statistical errors on the last digits of log β values, provided by HYPERQUAD, are given in parentheses. […]
(§8) log β pK log β pK log β pK log β pK log β pK log β pK
CuH3L - - - - - - - - - -
CI: Competitivity index calculated for pH 7.4 and peptide L, Cu(II) and Z concentrations of 0.001 M. CI is log KCuZ fulfilling the condition Σijk([CuiHjLk]=[CuZ].3 log *K4N is a protonation-corrected stability constant allowing to compare peptides with different protonation states forming the same type of complexes In general log*KxN, where x stand for number of coordinated nitrogens can be described by log *KxN = log β{CuHn-xL} – log β{HnL} HnL stands for the protonation of coordinating histidine (in position 3 from N-terminus in case of ATCUN motifs) […]
Peptides can be compared easily between each other using both protonation-corrected stability constant (log *K4N) and Competitivity Index at pH 7.4 (CI7.4):
(§9) For log *K4N, the higher the number (less negative value) the higher stability of Cu(II) complexes (only relative meaning – no interpretation of concentrations of species possible).
For CI7.4, the higher the number the higher the stability. […]

[2] = Potentiometric titration of peptides: protonation constants; type: physicochemical; conditions: protonation constant, potentiometry, 1 mM peptide, error on last digit in parentheses; for log β H2L / log β HL / log β H3L: 25 °C, I=0.1 (KNO3)
Description: as §1, §2, §3, §4, §5
Stock solution preparation: […]
Samples (1.5 mL volume, 1 mM peptide) were prepared in 4 mM HNO3/96 mM KNO3 solution. To calculate ligand (peptide) concentrations and their protonation constants, at least three consecutive potentiometric titrations were performed. […]
The pH range for all potentiometric
All ligand and complex titrations were performed under argon at 25 °C. The data was analyzed using the SUPERQUAD and HYPERQUAD programs. […]
as §6, §7, §8
CuH3L - - - - - - - - - - […]
as §9
For CI7.4, the higher the number the higher the stability. CI is the affinity constant for the imaginary CuZ complex which is equivalent in strength to the probed complex/set of complexes. The advantage of CI is that its unit is M-1, and can be compared with log K values for real complexes.

[3] = potentiometry, error on last digit in parentheses

Row | Compound | pK CuH-2L ([1]; Cu(II) species, potentiometry) | pK CuH-3L ([1]; Cu(II) species, potentiometry) | CI7.4 (competitivity index, log K CuZ) [1] | log *K4N (protonation-corrected stability constant of Cu(II) 4N complex) ([1]; potentiometry) | log β CuH-2L [1, 3] | log β CuH-3L [1, 3] | log β CuL [1, 3] | log β H2L [2] | log β HL [2] | pK CuH-1L ([1]; Cu(II) species, potentiometry) | pK CuL ([1]; Cu(II) species, potentiometry) | log β CuH-1L [1, 3] | log β CuH2L ([1]; potentiometry, 4 mM HNO3/96 mM KNO3, 1 mM peptide, Cu:peptide 1:1, 1:2, 1:3, pH 2.7-11.6, argon, error on last digit in parentheses) | log β H4L ([2]; 4 mM HNO3/96 mM KNO3, 25 °C, I=0.1, argon, at least three titrations) | log β H3L [2] | log β CuHL [1, 3]
1 | NCC(=O)NCCC(=O)N[C@@H](Cc1c[nH]cn1)C(=O)NCC(=O)N[C@@H](CO)C(=O)N[C@@H](CO)C(N)=O [Peptide c] (H-G[βAla]HGSS-NH2) | 5.65 | 10.4 | 9.915 | -18.426 | -4.160(5) | -14.560(8) | 7.137(5) | 14.266(3) | 8.001(2) | – | – | – | – | – | – | –
2 | NCCCC[C@H](NC(=O)[C@H](Cc1c[nH]cn1)NC(=O)CCNC(=O)[C@@H](N)CCCCN)C(=O)N[C@@H](CO)C(=O)N[C@@H](CO)C(N)=O [d] (H-K[βAla]HKSS-NH2) | 10.41 | – | 10.31 | -17.537 | -4.068(6) | – | 16.338(4) | 20.563(2) | 10.656(3) | 10.00 | 5.13 | 6.337(8) | 26.604(9) | 33.875(4) | 27.860(3) | –
3 | GGHGSS-NH2 [a] | – | 11.79 | 13.61 | -14.747 | -0.587(5) | -12.38(2) | – | 14.160(2) | 7.853(1) | – | – | – | – | – | – | –

Other lines, results leading:

Row | pK CuH-2L ([1]; Cu(II) species, potentiometry) | pK CuH-3L ([1]; Cu(II) species, potentiometry) | CI7.4 (competitivity index, log K CuZ) [1] | log *K4N (protonation-corrected stability constant of Cu(II) 4N complex) ([1]; potentiometry) | log β CuH-2L [1, 3] | log β CuH-3L [1, 3] | log β CuL [1, 3] | log β H2L [2] | log β HL [2] | pK CuH-1L ([1]; Cu(II) species, potentiometry) | pK CuL ([1]; Cu(II) species, potentiometry) | log β CuH-1L [1, 3] | log β CuH2L ([1]; potentiometry, 4 mM HNO3/96 mM KNO3, 1 mM peptide, Cu:peptide 1:1, 1:2, 1:3, pH 2.7-11.6, argon, error on last digit in parentheses) | log β H4L ([2]; 4 mM HNO3/96 mM KNO3, 25 °C, I=0.1, argon, at least three titrations) | log β H3L [2] | log β CuHL [1, 3] | Compound
4 | 4.92 | 11.58 | 11.28 | -16.804 | -3.104(3) | -14.683(9) | 6.743(7) | 13.700(3) | 7.584(3) | – | – | – | – | – | – | – | NC(=O)[C@H](CO)NC(=O)[C@H](CO)NC(=O)[C@H](Cc1c[nH]c2ccccc12)NC(=O)[C@H](Cc1c[nH]cn1)NC(=O)CCNC(=O)[C@@H](N)Cc1c[nH]c2ccccc12 [e] (H-W[βAla]HWSS-NH2)
5 | 10.12 | 11.17 | 10.52 | -17.435 | -3.840(7) | -15.007(8) | – | 17.632(4) | 10.262(3) | 5.06 | – | 6.280(3) | – | – | 23.715(5) | 16.406(9) | NCCCC[C@H](N)C(=O)NCCC(=O)N[C@@H](Cc1c[nH]cn1)C(=O)N[C@@H](Cc1c[nH]c2ccccc12)C(=O)N[C@@H](CO)C(=O)N[C@@H](CO)C(N)=O [f] (H-K[βAla]HWSS-NH2)
6 | 10.10 | – | 11.29 | -16.738 | -2.987(9) | – | – | 17.755(5) | 10.255(3) | 4.82 | – | 7.108(5) | – | – | 23.846(5) | 16.75(1) | NCCCC[C@H](NC(=O)[C@H](Cc1c[nH]cn1)NC(=O)CCNC(=O)[C@@H](N)Cc1c[nH]c2ccccc12)C(=O)N[C@@H](CO)C(=O)N[C@@H](CO)C(N)=O [g] (H-W[βAla]HKSS-NH2)
